Experimental data: patent publication US11976083B2, “Inhibitors of peptidylarginine deiminases” (Gilead Sciences, Inc., priority 2020, dated 2024)

biological target: T1, human PAD4 (Homo sapiens, UniProt Q9UM07); experiment: In vitro PAD4 BAEE biochemical assay; conditions: BAEE substrate 3 mM, 5 nM PAD4, 2 mM calcium chloride; geometric mean of multiple experiments
T1 construct: human PAD4 (NM_012387), A2-P663, was PCR amplified; His-SUMO (N, cleaved yes); made in house; host or cells: E. coli BL21(DE3)
T1 sequence (Q9UM07 2-663): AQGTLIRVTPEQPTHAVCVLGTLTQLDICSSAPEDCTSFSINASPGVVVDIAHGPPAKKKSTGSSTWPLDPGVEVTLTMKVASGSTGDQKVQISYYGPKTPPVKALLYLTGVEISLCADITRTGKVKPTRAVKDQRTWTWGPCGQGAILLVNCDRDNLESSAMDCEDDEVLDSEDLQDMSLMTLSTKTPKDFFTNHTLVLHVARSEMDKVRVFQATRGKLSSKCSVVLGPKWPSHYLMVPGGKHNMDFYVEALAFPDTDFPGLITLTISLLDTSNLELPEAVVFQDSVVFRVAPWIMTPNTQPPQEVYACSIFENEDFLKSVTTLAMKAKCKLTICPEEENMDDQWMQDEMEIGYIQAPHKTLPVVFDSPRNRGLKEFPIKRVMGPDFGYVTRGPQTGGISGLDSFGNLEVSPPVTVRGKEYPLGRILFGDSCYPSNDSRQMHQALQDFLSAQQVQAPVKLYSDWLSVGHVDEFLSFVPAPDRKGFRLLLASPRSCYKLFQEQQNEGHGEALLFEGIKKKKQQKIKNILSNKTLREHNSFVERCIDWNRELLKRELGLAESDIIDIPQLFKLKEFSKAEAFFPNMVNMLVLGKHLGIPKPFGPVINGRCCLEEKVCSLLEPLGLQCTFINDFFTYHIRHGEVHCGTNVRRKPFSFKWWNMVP
In short: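 Recombinant human PAD4 (5 nM final) with 2 mM CaCl2 was preincubated with compound 30 min at 25 °C in MOPS buffer pH 7.6, then reacted with 3 mM BAEE for 2 h at 25 °C. After EDTA stop, released ammonia was detected by o-phthalaldehyde/DTT fluorescence (ex 405/em 535 nm); IC50 from four-parameter fit, geometric mean.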

IC50 [nM] | SMILES
24 | C[C@H]1NC(=O)[C@@H]2C[C@@]2(F)CCCCCn2c(-c3nc4cc(C(=O)N5C[C@H](N)[C@@H]6CC[C@H]5C6)ccc4n3C3CC3)cc3ccc1nc32 [Example 923, (2~{R},5~{S},7~{S})-14-[5-[(1~{S},4~{R},5~{R})-4-amino-2-azabicyclo[3.2.1]octane-2-carbonyl]-1-cyclopropyl-benzimidazol-2-yl]-7-fluoro-2-methyl-3,13,19-triazatetracyclo [11.5.2.0^{5,7}.0^{16,20}] icosa-1(19),14,16(20), 17-tetraen-4-one]
113 | C[C@@H]1[C@H](N)CCCN1C(=O)c1ccc2c(nc(-c3cc4ccc5nc4n3CC/C=C/C[C@@H]3C[C@H]3C(=O)N[C@@H]5C)n2C2CC2)c1F [Example 753, (2~{R},5~{R},7~{R},9~{E})-14-[5-[(2~{R},3~{R})-3-amino-2-methyl-piperidine-1-carbonyl]-1-cyclopropyl-4-fluoro-benzimidazol-2-yl]-2-methyl-3,13,19-triazatetracyclo [11.5.2.0^{5,7}.0^{16,20}] icosa-1(19),9,14,16(20), 17-pentaen-4-one]
6 | COc1cc(C(=O)N2C[C@H](N)[C@@H]3CC[C@H]2C3)cc2nc(-c3cc4ccc5nc4n3C[C@H]3C[C@H]3CC[C@]3(F)C[C@H]3C(=O)N[C@@H]5C)n(C3CC3)c12 [Example 772, (3~{S},5~{R},8~{S},10~ {S},13~{R})-19-[5-[(1~{S},4~ {R},5~{R})-4-amino-2-azabicyclo[3.2.1]octane-2-carbonyl]-1-cyclopropyl-7-methoxy-benzimidazol-2-yl]-8-fluoro-13-methyl-1,12,21-triazapentacyclo[12.5.2.0^ {3,5).0^{8,10}.0^{17,20}] henicosa-14(21), 15,17(20),18-tetraen-11-one]
394 | COCCn1c(-c2cc3ccc4nc3n2CCCCCc2nccnc2C(=O)N[C@@H]4C)nc2cc(C(=O)N3CC[C@@H](OC)[C@@H](N)C3)cc(F)c21 [Example 435, (2~{R})-17-[5-[(3~{S},4~{R})-3-amino-4-methoxy-piperidine-1-carbonyl]-7-fluoro-1-(2-methoxyethyl)benzimidazol-2-yl]-2-methyl-3,6,9,16,22-pentazatetracyclo[14.5.2.0^{5,10}.0^{19, 23}]tricosa-1(22),5(10),6,8,17,19(23),20-heptaen-4-one]
371 | COc1cc(C(=O)N(C)[C@H]2CNCC[C@@H]2F)cc2nc(-c3cc4ccc5nc4n3CCCCCCC(C)(C)C(=O)N[C@@H]5C)n(C)c12 [Example 514, ~{N}-[(3~{S},4~{S})-4-fluoro-3-piperidyl]-7-methoxy-~{N},1-dimethyl-2-[(11~{R})-8,8,11-trimethyl-9-oxo-1,10,19-triazatricyclo[10.5.2.0^ {15,18}]nonadeca-12(19),13,15(18),16-tetraen-17-yl]benzimidazole-5-carboxamide]
28 | CCn1c(-c2cc3ccc4nc3n2CCCCC[C@]2(F)C[C@H]2C(=O)N[C@@H]4C)nc2cc(C(=O)N3C[C@H](N)[C@@H]4CC[C@H]3C4)cc(F)c21 [Example 938, (2~{R},5~{S},7~{S})-14-[5-[(1~{S),4~{R},5~{R})-4-amino-2-azabicyclo[3.2.1]octane-2-carbonyl]-1-ethyl-7-fluoro-benzimidazol-2-yl]-7-fluoro-2-methyl-3,13,19-triazatetracyclo[11.5.2.0^ {5,7}.0^{16,20}]icosa-1(19), 14,16(20),17-tetraen-4-one]
858 | COc1cc(C(=O)N2CCC[C@@H](N)C2)cc2nc(-c3cc4ccc5nc4n3CCCCCCCC(=O)N[C@H]5C(F)(F)F)n(C)c12 (single isomer, unassigned) [Example 236, (11˜{R})-17-[5-[(3˜{R})-3-aminopiperidine-1-carbonyl]-7-methoxy-1-methyl-benzimidazol-2-yl]-11-(trifluoromethyl)-1,10,19-triazatricyclo[10.5.2.0^{15,18}]nonadeca-12(19),13,15(18),16-tetraen-9-one]
560 | COC(=O)[C@H]1CC[C@@H](NC(=O)c2cc(OC)c3c(c2)nc(-c2cc4ccc5nc4n2CCCCCCC(C)(C)C(=O)N[C@@H]5C)n3C)CN1 [Example 71, methyl (2~{R},5~{R})-5-[[7-methoxy-1-methyl-2-[(11~{R})-8,8,11-trimethyl-9-oxo-1,10,19-triazatricyclo[10.5.2.0^{15,18}]nonadeca-12(19),13,15(18),16-tetraen-17-yl]benzimidazole-5-carbonyl]amino]piperidine-2-carboxylate]
81 | COc1cc(C(=O)N2CCC[C@@H](N)C2)cc2nc(-c3cc4ccc5nc4n3CCCCCC[C@@H]3CCN(C3=O)[C@@H]5C)n(C)c12 [Example 112, (2~{R},6~{R})-14-[5-[(3~{R})-3-aminopiperidine-1-carbonyl]-7-methoxy-1-methyl-benzimidazol-2-yl]-2-methyl-3,13,19-triazatetracyclo[11.5.2.1^{3,6}.0^{16,20}] henicosa-1(19),14,16(20),17-tetraen-21-one]
24 | CO[C@@H]1CCN(C(=O)c2cc(F)c3c(c2)nc(-c2cc4ccc5nc4n2CCCCCc2nc4ccccc4nc2C(=O)N[C@@H]5C)n3C2CC2)C[C@@H]1N [Example 828, (2~{R})-21-[5-[(3~{S), 4~{R})-3-amino-4-methoxy-piperidine-1-carbonyl]-1-cyclopropyl-7-fluoro-benzimidazol-2-yl]-2-methyl-3,6,13,20,26-pentazapentacyclo [18.5.2.0^{5,14}.0^{7, 12}.0^{23,27}]heptacosa-1(26),5(14),6,8,10,12,21,23(27), 24-nonaen-4-one]
83 | COc1cc(C(=O)N2CC[C@@H](OC)[C@@H](N)C2)cc2nc(-c3cc4ccc5nc4n3CCCCCC[C@@H](OC)C(=O)N[C@@H]5C)n(C)c12 [Example 628, (8~{R},11~{R})-17-[5-[(3~ {S},4~{R})-3-amino-4-methoxy-piperidine-1-carbonyl]-7-methoxy-1-methyl-benzimidazol-2-yl]-8-methoxy-11-methyl-1,10,19-triazatricyclo [10.5.2.0^{15,18}] nonadeca-12(19),13,15(18),16-tetraen-9-one]
6 | Cc1ccc2c(n1)CCCCCn1c(-c3nc4cc(C(=O)N5C[C@H](N)[C@@H]6CC[C@H]5C6)cc(F)c4n3C3CC3)cc3ccc(nc31)[C@@H](C)NC2=O [Example 670, (2~{R})-17-[5-[(1~{S),4~{R}, 5~{R})-4-amino-2-azabicyclo[3.2.1]octane-2-carbonyl]-1-cyclopropyl-7-fluoro-benzimidazol-2-yl]-2,8-dimethyl-3,9,16,22-tetrazatetracyclo[14.5.2.0^ {5,10).0^{19,23}]tricosa-1(22),5(10),6,8,17,19(23), 20-heptaen-4-one]
56 | COc1cc(C(=O)N2CC[C@@H](O)[C@@H](N)C2)cc2nc(-c3cc4ccc5nc4n3CCCCCCC(C)(C)C(=O)N[C@@H]5C)n(C)c12 [Example 195, (11~{R})-17-[5-[(3~{S},4~{R})-3-amino-4-hydroxy-piperidine-1-carbonyl]-7-methoxy-1-methyl-benzimidazol-2-yl]-8,8,11-trimethyl-1,10,19-triazatricyclo[10.5.2.0^{15,18}]nonadeca-12(19),13,15(18),16-tetraen-9-one]
18 | C[C@H]1NC(=O)c2c(F)cncc2CCCCCn2c(-c3nc4cc(C(=O)N[C@H]5CNCC[C@@H]5F)c(F)cc4n3C3CC3)cc3ccc1nc32 [Example 355, 1-cyclopropyl-6-fluoro-2-[(2~{R})-6-fluoro-2-methyl-4-oxo-3,8,16,22-tetrazatetracyclo[14.5.2.0^{5,10}.0^{19,23}]tricosa-1(22),5,7,9,17,19(23),20-heptaen-17-yl]~{N}-[(3~{S},4~{S})-4-fluoro-3-piperidyl]benzimidazole-5-carboxamide]
137 | COc1cc(C(=O)N2CC[C@@H](OC)[C@@H](N)C2)cc2nc(-c3cc4ccc5nc4n3CCCCCc3nccnc3C(=O)N[C@@H]5C)n(C)c12 [Example 240, (2~{R})-17-[5-[(3~{S),4~{R})-3-amino-4-methoxy-piperidine-1-carbonyl]-7-methoxy-1-methyl-benzimidazol-2-yl]-2-methyl-3,6,9,16,22-pentazatetracyclo[14.5.2.0^{5,10}.0^{19, 23}]tricosa-1(21),5(10),6,8,17,19,22-heptaen-4-one]
15 | CO[C@@H]1CCN(C(=O)c2cc(F)c3c(c2)nc(-c2cc4ccc5nc4n2CCCCCc2nc4ccccc4cc2C(=O)N[C@@H]5C)n3C2CC2)C[C@@H]1N [Example 829, (2~{R})-21-[5-[(3~{S},4~ {R})-3-amino-4-methoxy-piperidine-1-carbonyl]-1-cyclopropyl-7-fluoro-benzimidazol-2-yl]-2-methyl-3,13,20,26-tetrazapentacyclo [18.5.2.0^{5,14}.0^{7,1 2}.0^{23,27}]heptacosa-1(26),5(14),6,8,10,12,21,23(27), 24-nonaen-4-one]
27 | COc1cc(C(=O)N2C[C@H](N)[C@@H]3CC[C@H]2C3)cc2nc(-c3cc4ccc5nc4n3CCCCCc3ccccc3C(=O)N[C@@H]5C)n(C3CC3)c12 [Example 673, (2~{R})-17-[5-[(1~{S},4~ {R},5~{R})-4-amino-2-azabicyclo[3.2.1]octane-2-carbonyl]-1-cyclopropyl-7-methoxy-benzimidazol-2-yl]-2-methyl-3,16,22-triazatetracyclo[14.5.2.0^ {5,10}.0^{19,23}] tricosa-1(22),5(10),6,8, 17,19(23),20-heptaen-4-one]
115 | CCO[C@@H]1CCN(C(=O)c2cc(OC)c3c(c2)nc(-c2cc4ccc5nc4n2CCCCCCC(C)(C)C(=O)N[C@@H]5C)n3C)C[C@@H]1N [Example 104, (11~{R})-17-[5-[(3~{S},4~{R})-3-amino-4-ethoxy-piperidine-1-carbonyl]-7-methoxy-1-methyl-benzimidazol-2-yl]-8,8,11-trimethyl-1,10,19-triazatricyclo[10.5.2.0^{15,18}]nonadeca-12(19),13,15(18),16-tetraen-9-one]
